This note sets out measurements from US6596878B2, “Methods and compositions for inhibiting cell proliferative disorders” (Yissum Research & Development Company of the Hebrew …, priority 1994, dated 2003).

In assay [1] the target is T1, chimeric receptor containing the EGFR extracellular domain and the HER2 intracellular kinase domain (Homo sapiens, UniProt P04626).
T1 construct: P00533 (Epidermal growth factor receptor)
The experiment in a line: EGFR-HER2 chimeric receptor whole cell kinase assay (E/HER2-3T3). The assay is classed as cell-based. To be noted: Table VI, cellular kinase assay. The source says:
(§1) This example illustrates the ability of the exemplary compounds to inhibit receptor tyrosine kinases, such as HER2 and/or EGFR. The following target cells were used for cellular kinaseassays: NIH3T3 clone C7 (Honegger et al., supra) engineered to over-express human EGF receptor; NIH3T3 cells engineered to over-express a chimeric receptor containing the EGFR extracellular domain and the HER2 intracellular kinase domain; the human mammary carcinoma line BT474 (ATCC HTB2) expressing HER2; and the human glioblastoma line U1242 that expresses PDGFR-β. Growth assays were carried out using human mammary epithelial SKBR3 (ATCC HTB30) cells, SKOV3 (ATCC HTB77) human ovarian cancer cell line, A431 cells, MCF7 human breast carcinoma cells, MCF7 cells overexpress the HER2 kinase (MCF7-HER2), NIH3T3 cells, and NIH3T3 cells overexpressing the HER2 kinase (3T3-HER2).
2. EGFR-HER2 Chimeric Receptor
HER2 kinase activity (EGFR-3T3) in whole cells was measured as described below:
The following protocol was used:
A. Coat ELISA plates (Corning, 96 well, Cat. #25805-96) with 05-101 antibody at 0.5 μg per well in PBS, 100 μl final volume/well, and store overnight at 4° C. Coated plates are good for up to 10 days when stored at 4° C.
B. On day of use, remove coating buffer and replace with 100 μl blocking buffer (5% Carnation Instant Non-Fat Dry Milk in PBS). Incubate the plate, shaking, at room temperature (about 23° C. to 25° C.) for 30 minutes. Just prior to use, remove blocking buffer and wash plate 4 times with TBST buffer.
A. An NIH3T3 cell line overexpressing a chimeric receptor containing the EGFR extracellular domain and extracellular HER2 kinase domain can be used for this assay.
A. Choose dishes having 80-90% confluence for the experiment. Trypsinize cells and stop reaction by adding 10% fetal bovine serum. Suspend cells in DMEM medium (10% CS DMEM medium) and centrifuge once at 1500 rpm, at room temperature for 5 minutes.
B. Resuspend cells in seeding medium (DMEM, 0.5% bovine serum), and count the cells using trypan blue. Viability above 90% is acceptable. Seed cells in DMEM medium (0.5% bovine serum) at a density of 10,000 cells per well, 100 μl per well, in a 96 well microtiter plate. Incubate seeded cells in 5% CO2 at 37° C. for about 40 hours.
A. Check seeded cells for contamination using an inverted microscope. Dilute drug stock (10 mg/ml in DMSO) 1:10 in DMEM medium, then transfer 5 μl to a test well for a final drug dilution of 1:200 and a final DMSO concentration of 1%. Control wells receive DMSO alone. Incubate in 5% CO2 at 37° C. for two hours.
A. Prepare EGF ligand: dilute stock EGF in DMEM so that upon transfer of 10 μl dilute EGF (1:12 dilution), 100 nM final concentration is attained.
B. Prepare fresh HNTG* sufficient for 100 μl per well; and place on ice.
C. After 120 minutes incubation with drug, add prepared EGF ligand to cells, 10 μl per well, to a final concentration of 100 nM. Control wells receive DMEM alone. Incubate, shaking, at room temperature, for 5 minutes.
D. Remove drug, EGF, and DMEM. Wash cells twice with PBS. Transfer HNTG* to cells, 100 μl per well. Place on ice for 5 minutes. Meanwhile, remove blocking buffer from other ELISA plate and wash with TBST as described above.
E. With a pipette tip securely fitted to a micropipettor, scrape cells from plate and homogenize cell material by repeatedly aspirating and dispensing the HNTG* lysis buffer. Transfer lysate to a coated, blocked, and washed ELISA plate. Incubate shaking at room temperature for one hour.
F. Remove lysate and wash 4 times with TBST. Transfer freshly diluted anti-Ptyr antibody to ELISA plate at 100 μl per well. Incubate shaking at room temperature for 30 minutes in the presence of the anti-Ptyr antiserum (1:3000 dilution in TBST).
G. Remove the anti-Ptyr antibody and wash 4 times with TBST. Transfer the freshly diluted TAGO anti-rabbit IgG antibody to the ELISA plate at 100 μl per well. […]

The test system of assay [2] is MCF7 cells overexpress the HER2 kinase (MCF7-HER2). The experiment in a line: MCF-7/HER-2 SRB growth assay. The assay is classed as cell-based, human. To be noted: Table VI, 0.5% FBS, four days.
From the text: as §1
(§2) MCF-7 cells are seeded at 2000 cells/ well in a 96-well flat bottom plate in normal growth media, which was 10% FBS/RPMI supplemented with 2 mM Glutamine. The plate of cells is incubated for about 24 hours at 37° C. after which it receives an equal volume of compound dilution per well making the total volume per well 200 μl. The compound is prepared at 2 times the desired highest final concentration and serially diluted in the normal growth media in a 96-well round bottom plate and then transferred to plate of cells. DMSO serves as the vector control up to 0.2% as final concentration. The cells are then incubated at 37° C. in a humidified 5% CO2 incubator.
(§3) Four days following dosing of compound, the media is discarded and 200 μl/well of ice-cold 10% TCA (Trichloroacetic Acid) is added to fix cells. After 60 minutes at 4° C., the TCA is discarded and the plate is rinsed 5 times with water. The plate is then air-dried and 100 μl/well of 0.4% SRB (Sulforhodamine B from Sigma) in 1% Acetic Acid is added to stain cells for 10 minutes at room temperature. The SRB is discarded and the plate is rinsed 5 times with 1% Acetic Acid. After the plate is completely dried, 100 μl/well of 10 mM Tris-base is added to solubilize the dye. After 5 to 10 minutes, the plate is read on a Dynatech ELISA Plate Reader at dual wavelengths at 570 nm and 630 nm.
8. MCF-7/HER-2 SRB Growth Assay
The protocol is basically the same as that above (for the MCF-7 Growth Assay) except that immediately before the compound is added, the normal growth media is removed and 0.5% FBS/RPMI supplemented with 2 mM Glutamine is added onto the cells. The compound is also prepared in this 0.5% serum media. The plate of cells is incubated for four days and developed as usual.
Background: In SRB staining, fixed cells bind dye roughly in proportion to their protein.

For assay [3], the system named is MCF7 human breast carcinoma cells. The assay can be described thus: MCF-7 SRB growth assay. The assay is classed as cell-based. The settings on record: Table VI, 10% FBS, four days.
From the text: as §1
6. MCF-7 SRB Growth Assay
as §2, §3

As to `CC(C)(C)c1cc(/C=C(\C#N)C(N)=S)cc(C(C)(C)C)c1O` [Compound M11], the IC50 in assay [1] was above 100 µM; in assay [2] (Homo sapiens, MCF7, 96 h), 0.2 µM; in assay [3] (Homo sapiens, MCF7, 96 h) it was 4 µM.

In the case of `Cc1cc(/C=C(\C#N)S(=O)(=O)c2ccccn2)cc(C)c1O` [Compound M32], the half-inhibitory concentration (IC50) is above 100 µM in assay [1] and above 50 µM in assay [2] (Homo sapiens, MCF7, 96 h).

Take `N#C/C(=C\c1ccc(O)c(O)c1)C(=S)NCc1ccccc1` [Compound M13]: the IC50 in assay [1] was above 100 µM.

Consider `CC(C)(C)c1cc(/C=C(\C#N)S(=O)(=O)c2ccccn2)cc(C(C)(C)C)c1O` [Compound M34, (E)-3-(3,5-di-t-Butyl-4-hydroxyphenyl)-2-[(pyrid-2-yl)sulfonyl]acrylonitrile], for which the IC50 was above 100 µM in assay [1]; 0.06 µM in assay [2] (Homo sapiens, MCF7, 96 h); 2 µM in assay [3] (Homo sapiens, MCF7, 96 h).

In the case of `CC(C)(C)c1cc(/C=C(\C#N)S(=O)(=O)CC#N)cc(C(C)(C)C)c1O` [Compound M36, (E)-3-(3,5-di-t-Butyl-4-hydroxyphenyl)-2-(cyanomethylsulfonyl)acrylonitrile], the half-inhibitory concentration (IC50) was above 100 µM in assay [1]; 2 µM in assay [2] (Homo sapiens, MCF7, 96 h); 8 µM in assay [3] (Homo sapiens, MCF7, 96 h).

As for `CC(C)c1cc(/C=C(\C#N)S(=O)(=O)CC#N)cc(C(C)C)c1O` [Compound M27], the IC50 in assay [1] was above 100 µM; in assay [2] (Homo sapiens, MCF7, 96 h) it was 6 µM; in assay [3] (Homo sapiens, MCF7, 96 h), 33 µM.

Regarding `N#C/C(=C\c1ccc(O)c(O)c1)C(=O)Nc1cccc(C(F)(F)F)c1` [Compound M15], the concentration for half-maximal inhibition (IC50) in assay [1] is above 100 µM; in assay [2] (Homo sapiens, MCF7, 96 h), 6 µM; in assay [3] (Homo sapiens, MCF7, 96 h), 15 µM.

In the case of `CC(C)(C)c1cc(/C=C(\C#N)C(=O)Nc2ccc(C(F)(F)F)cc2)cc(C(C)(C)C)c1O` [Compound M35, (E)-3-(3,5-di-t-Butyl-4-hydroxyphenyl)-2-[(4-trifluoromethyl)phenylaminocarbonyl]acrylonitrile], the 50% inhibitory concentration (IC50) in assay [1] was above 100 µM; in assay [2] (Homo sapiens, MCF7, 96 h) it was 0.09 µM; in assay [3] (Homo sapiens, MCF7, 96 h), 0.3 µM.

Take `CC(C)(C)c1cc(/C=C(\C#N)S(=O)(=O)c2ccccc2)cc(C(C)(C)C)c1O` [Compound M33, (E)-3-(3,5-di-t-Butyl-4-hydroxyphenyl)-2-(phenylsulfonyl)acrylonitrile]: the IC50 in assay [1] is above 100 µM; in assay [2] (Homo sapiens, MCF7, 96 h), 0.05 µM; in assay [3] (Homo sapiens, MCF7, 96 h), 1 µM.

Take “(E,E)-2-[[-Cyano-2-(3,5-diisopropyl-4-hydroxyphenyl)ethenyl]sulfonyl]-3-(3,5-di-t-butyl-4-hydroxyphenyl)acrylonitrile [Compound M37]”: the results for the IC50 in assay [1], in assay [2] and in assay [3] were above 100 µM, 1 µM and 3 µM, respectively.

For the compound `CC(C)(C)c1cc(/C=C(\C#N)C(=O)NCCCc2ccccc2)cc(C(C)(C)C)c1O` [Compound M20, (E)-3-(3,5-di-t-Butyl-4-hydroxyphenyl)-2-[(3-phenyl-n-propyl)aminocarbonyl]acrylonitrile], the IC50 in assay [2] (Homo sapiens, MCF7, 96 h) was 0.6 µM; in assay [3] (Homo sapiens, MCF7, 96 h), 6 µM.

The compound `Cc1cc(/C=C(\C#N)S(=O)(=O)c2ccccc2)cc(C)c1O` [Compound M31] displayed an IC50 in assay [1] above 100 µM.

As for `CC(C)c1cc(/C=C(\C#N)S(=O)(=O)c2ccccc2)cc(C(C)C)c1O` [Compound M30], the concentration for half-maximal inhibition (IC50) in assay [1] is 18.3 µM; in assay [2] (Homo sapiens, MCF7, 96 h), 2 µM; in assay [3] (Homo sapiens, MCF7, 96 h), 9 µM.

Turning to `CC(C)c1cc(/C=C(\C#N)C(=S)NCCCc2ccccc2)cc(C(C)C)c1O` [Compound M24, (E)-3-(3,5-Diisopropyl-4-hyrdroxyphenyl)-2-[(3-phenyl-n-propyl)aminothiocarbonyl]acrylonitrile], the 50% inhibitory concentration (IC50) in assay [1] is above 100 µM; in assay [2] (Homo sapiens, MCF7, 96 h), 1 µM; in assay [3] (Homo sapiens, MCF7, 96 h), 8 µM.

With `CC(C)c1cc(/C=C(\C#N)C(=O)NCCCc2ccccc2)cc(C(C)C)c1O` [Compound M21, (E)-3-(3,5-Diisopropyl-4-hydroxyphenyl)-2-[(3-phenyl-n-propyl)aminocarbonyl]acrylonitrile], the IC50 in assay [1] was above 100 µM; in assay [2] (Homo sapiens, MCF7, 96 h), 2 µM; in assay [3] (Homo sapiens, MCF7, 96 h), 14 µM.

In assay [1], `CC(C)c1cc(/C=C(\C#N)S(=O)(=O)c2ccccn2)cc(C(C)C)c1O` [Compound M26] yielded an IC50 above 100 µM.

Turning to `CC(C)c1cc(C=C(C#N)C(N)=C(C#N)C#N)cc(C(C)C)c1O` [Compound M22, (E)-2-(1-Amino-2,2-dicyanoethenyl-3-(3,5-diisopropyl-4-hydroxyphenyl)acrylonitrile)], the IC50 in assay [1] was above 100 µM; in assay [2] (Homo sapiens, MCF7, 96 h), 9 µM; in assay [3] (Homo sapiens, MCF7, 96 h), 44 µM.

In the case of `CC(C)c1cc(/C=C(\C#N)S(=O)(=O)/C(C#N)=C/c2cc(C(C)C)c(O)c(C(C)C)c2)cc(C(C)C)c1O` [Compound M29], the IC50 in assay [1] is above 100 µM; in assay [2] (Homo sapiens, MCF7, 96 h), 2 µM; in assay [3] (Homo sapiens, MCF7, 96 h) it was 12 µM.

As a reminder, the IC50 is the midpoint of a concentration-inhibition curve. Lower therefore signals greater potency.
